Experimental data published in US8802053B2 (Brookhaven Science Associates, LLC, priority 2009, dated 2014).

Assays:
brain aromatase enzymes = conditions: Kil et al. (2008); cited from earlier work
brain aromatase = test: PET studies in baboons (brain imaging); format: in vivo, baboon
Method: PET Studies in Baboons: All animal studies were reviewed and approved by the Brookhaven Institutional Animal Care and Use Committee. […] Baboons were anesthetized with ketamine (10 mg/kg) and then intubated and ventilated with a mixture of isoflurane (Forane, 1-4%) and nitrous oxide (1500 mL/min) and oxygen (800 mL/min). Animals were transported to and from the PET facility in a temperature controlled transfer cage and a member of the staff attended them while they recovered from anesthesia. Catheters were inserted in a popliteal artery and radial arm vein for arterial sampling a radiotracer injection respectively. Dynamic PET imaging was carried out on a Siemen's HR+ high resolution, whole body PET scanner (4.5×4.5×4.8 mm at center of field of view) in 3D acquisition mode, 63 planes. A transmission scan was obtained with a ^68Ge rotating rod source before the emission scan to correct for attenuation before each radiotracer injection. […] Dynamic scanning was carried out for 90 minutes with the following time frames (1×10 sec; 12×5 sec; 1×20 sec; 1×30 sec; 8×60 sec; 4×300 sec; 8×450 sec). […] During the PET scan, baboons were monitored for heart rate, respiration rate, PO2 and temperature. Animals were allowed 4 weeks between studies to recover from anesthesia and blood sampling.
Image Analysis: Time frames were summed over the 90 minute experimental period. Regions of interest were placed over the amygdala, the preoptic area, frontal cortex, cerebellum and thalamus on the summed image and then projected onto the dynamic images to obtain time activity curves. Regions occurring bilaterally were averaged. Carbon-11 concentration in each region of interest was divided by the injected dose to obtain the % dose/cc. The summed PET images from one baboon was co-registered with a 3D MR image of the same animal using PMOD (PMOD Technologies, Ltd.).

[1] = Plasma analysis for fraction of 11C-isomers (unchanged parent tracer by HPLC); format: in vivo; conditions: baboon plasma
Method: Plasma analysis for fraction of ^11C-isomers: Plasma samples at 1, 5, 10, 30 and 60 min were analyzed by HPLC to determine the percent of residual parent tracer. Plasma samples from selected time points were added to 300 μL acetonitrile containing an appropriate amount of standard, then subjected to cell disruption using a Polytron (Brinkmann Instruments), centrifuged for 4 minutes and decanted into 300 μL water. HPLC conditions were 60:40 0.1 M ammonium formate:acetonitrile, Waters μBondapak column (3.9×300 mm), flow 1.3 mL/min, UV detection at 254 nm. Supernatants were injected onto the column, reserving a measured amount to determine recovery of injected activity from the column. […] Five fractions were collected from each injection, 3 before the parent peak, the parent peak, and finally the tail of the parent peak. The percent unchanged tracer was determined by dividing the sum of the last 2 peaks by the sum of all HPLC fractions.

N#Cc1ccc(C(c2ccc(C#N)cc2)n2cncn2)cc1 [[^11C]letrozole]
blocking of uptake by pretreatment with unlabeled letrozole (brain aromatase enzymes): failed to block uptake | brain uptake and clearance (brain aromatase enzymes): rapidly taken up in the brain and was then rapidly cleared

N#Cc1ccc(C(c2ccc(C#N)cc2)n2cncn2)cc1 [letrozole, reference compound]
effect of pretreatment on [N-methyl-11C]vorozole accumulation in brain (brain aromatase; blocking dose 0.1 mg/kg, 5 min prior, baboon): reduced [N-methyl-^11C]vorozole accumulation in all brain regions examined

[11CH3]n1nc2ccc(C(c3ccc(Cl)cc3)n3cncn3)cc2n1 (stereo not drawn) [N-2 isomer]
appearance of labeled metabolites in plasma [1]: very rapid appearance of labeled metabolites | disappearance of parent labeled compound from plasma [1]: rapid rate of disappearance of the parent labeled compound from plasma | distribution to aromatase-rich brain regions (brain aromatase; baboon brain): no specific distribution to aromatase-rich brain regions | PET image uptake in amygdala and preoptic area (brain aromatase; baboon brain, images summed 15-90 min after injection, FIG. 3): no specific uptake in amygdala and preoptic area
